Experimental data as given in paper PMC8348983 (International Journal of Molecular Sciences, 2021).
Read-outs that look alike come from different tables or passages of the source.

Experiments:
Assay type in all cases: biochemical
[1] = molecular target: T1, human plasma BChE (Homo sapiens, UniProt P06276); test: biochemical
T1 construct: was used as a source of BChE and was prepared from heparinized human blood; from tissue; host or cells: human plasma from heparinized human blood

[2] = molecular target: T2, hBuChE (Homo sapiens, UniProt P06276); test: Kinetic study of hBuChE inhibition
T2 construct: was used as a source of BChE and was prepared from heparinized human blood; from tissue; host or cells: human plasma from heparinized human blood
Experimental: Compound 6, the derivative with the most robust inhibitory activity, was subjected to enzyme kinetics analysis to determine the mode of hBuChE inhibition. Inhibition kinetics were elucidated from velocity curves that were measured at several concentrations of substrate butyrylthiocholine and test compound. The type of enzyme inhibition and corresponding kinetic parameters (Ki and Ki′) were determined by nonlinear regression analysis. Results for each type of model of inhibition (competitive, non-competitive, uncompetitive, and mixed) were compared by the sum-of-squares F-test. […].
Kinetic studies employed the same procedure that was previously described. Supplementary Materials provides details of this assay.
Biological assays in detail hAChE and hBuChE Inhibition Assay
The inhibitory activities of prepared compounds and standards against human recombinant AChE (E.C.
3.1.1.7) and human plasma BChE (E.C. 3.1.1.8) were determined using modified Ellman’s method […]
cholinesterase activity). Human recombinant AChE, phosphate buffer (PB, pH = 7.4), 5,5’ -dithio-bis(2-nitrobenzoic) acid (Ellman’s reagent, DTNB), acetylthiocholine (ATCh), butyrylthiocholine (BTCh), and other used compounds were purchased from Sigma-Aldrich (Prague, Czech Republic). […]
The solutions of she corresponding cholinesterase in PB were prepared up to the final activity 0.002 U/µL. […] The increase of absorbance was measured at 412 nm using Multimode microplate reader Synergy 2 (BioTek Inc., Winooski, VT, USA). For the calculation of the resulting measured activity (the percentage of inhibition I) following formula was used: […]
where ΔAi indicates absorbance change provided by adequate enzyme exposed to corresponding inhibitor and ΔA0 indicates absorbance change when a solution of PB was added instead of a solution of inhibitor. […]
The kinetic study hBuChE was performed by using above mentioned modified Ellman’s method. The values of Vmax and Km of the Michaelis-Menten kinetics as well as the values of Ki and Ki’ were calculated by nonlinear regression from the substrate velocity curves. […]

[3] = molecular target: human recombinant AChE (Homo sapiens, UniProt P22303); test: biochemical
[4] = molecular target: T3, MAO-B (Homo sapiens, UniProt P27338); test: MAO-B inhibition assay
T3 construct: purchased Merck, Germany
T3 sequence (P27338 1-520): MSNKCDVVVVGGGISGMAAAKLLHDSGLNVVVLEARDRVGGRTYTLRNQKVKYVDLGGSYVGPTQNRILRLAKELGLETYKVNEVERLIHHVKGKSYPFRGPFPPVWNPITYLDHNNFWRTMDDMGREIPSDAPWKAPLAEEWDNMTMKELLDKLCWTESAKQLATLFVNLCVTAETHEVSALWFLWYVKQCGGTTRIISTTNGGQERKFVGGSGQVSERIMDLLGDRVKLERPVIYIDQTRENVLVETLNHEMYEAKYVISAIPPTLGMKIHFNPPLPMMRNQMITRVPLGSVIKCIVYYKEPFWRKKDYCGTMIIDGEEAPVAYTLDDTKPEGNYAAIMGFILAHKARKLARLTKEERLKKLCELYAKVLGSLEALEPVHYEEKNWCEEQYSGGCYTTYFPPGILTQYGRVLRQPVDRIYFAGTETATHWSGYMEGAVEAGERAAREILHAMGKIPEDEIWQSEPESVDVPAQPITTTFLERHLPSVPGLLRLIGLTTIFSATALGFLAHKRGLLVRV
Experimental: Since monoamine oxidase (MAO; EC 1.4.3.4) inhibitors are considered as neuroprotective agents, compound 6 was screened at two concentrations (1 and 10 µM) for its inhibition potential against both isoforms of human MAOs. […]; MAO inhibition assay was performed as previously described. Supplementary Materials provides details of this assay. […]
The reaction mixture contains 2.5mg/mL MAO -A or 6.25mg/mLMAO-B enzyme (Merck, Germany) and inhibitor in final concentrations of […] in 50 mM potassiumphosphate buffer with 20% (v/v) glycerol (pH 7.5). […] The sample was then centrifuged (16.500 g) for10 min.The deamination product of kynuramine formed during the enzymatic reaction 4-hydroxyquinoline (4-HQ) was determined by UHPLC-MS on a Zorbax RRHD Eclipse plus C18 column (2.1 mm x 50 mm, […]) (Agilent Technologies, USA), by using a 6470 Series Triple Quadrupole mass spectrometer (Agilent Technologies, USA) as detector with electrospray ionisation – positive ion mode. […]
0.1% formic acid in water; (B) 0.1% formic acid in acetonitrile. IC 50of individual compounds were determined by nonlinear regression usingGraphPad Prism 8.0 (GraphPad Software, USA).

T1 sequence (P06276 29-602): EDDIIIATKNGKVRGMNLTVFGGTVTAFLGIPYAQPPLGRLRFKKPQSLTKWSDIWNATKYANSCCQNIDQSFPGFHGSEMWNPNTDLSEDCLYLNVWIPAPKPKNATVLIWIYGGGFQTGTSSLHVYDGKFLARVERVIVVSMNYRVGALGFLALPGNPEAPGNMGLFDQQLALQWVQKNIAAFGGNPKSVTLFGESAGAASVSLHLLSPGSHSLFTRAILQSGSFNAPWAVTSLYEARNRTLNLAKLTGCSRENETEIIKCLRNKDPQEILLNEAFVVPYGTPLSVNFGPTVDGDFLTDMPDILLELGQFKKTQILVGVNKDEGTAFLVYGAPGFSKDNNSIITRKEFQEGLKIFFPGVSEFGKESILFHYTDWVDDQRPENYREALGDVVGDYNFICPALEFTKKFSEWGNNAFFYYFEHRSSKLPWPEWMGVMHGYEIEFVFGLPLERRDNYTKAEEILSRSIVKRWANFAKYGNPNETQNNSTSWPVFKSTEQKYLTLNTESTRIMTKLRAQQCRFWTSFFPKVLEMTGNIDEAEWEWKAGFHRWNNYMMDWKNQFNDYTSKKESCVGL
Chain of human recombinant AChE (P22303 32-614): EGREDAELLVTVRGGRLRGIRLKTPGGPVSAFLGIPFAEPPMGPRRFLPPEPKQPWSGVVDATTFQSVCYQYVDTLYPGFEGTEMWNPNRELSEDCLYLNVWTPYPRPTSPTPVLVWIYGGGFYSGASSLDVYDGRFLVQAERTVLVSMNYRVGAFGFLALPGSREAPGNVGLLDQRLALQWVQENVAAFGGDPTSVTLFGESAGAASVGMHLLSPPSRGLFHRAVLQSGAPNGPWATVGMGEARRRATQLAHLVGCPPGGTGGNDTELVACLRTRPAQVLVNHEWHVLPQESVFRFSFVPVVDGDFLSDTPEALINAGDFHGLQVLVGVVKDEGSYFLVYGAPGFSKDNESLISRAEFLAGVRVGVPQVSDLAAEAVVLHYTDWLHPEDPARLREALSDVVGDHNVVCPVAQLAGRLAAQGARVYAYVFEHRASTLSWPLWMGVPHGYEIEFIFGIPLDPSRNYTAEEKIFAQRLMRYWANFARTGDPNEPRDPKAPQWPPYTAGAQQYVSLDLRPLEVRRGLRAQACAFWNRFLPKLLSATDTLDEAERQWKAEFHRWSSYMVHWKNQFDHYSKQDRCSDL

With `C=CCOc1ccc(CCN(CC=C)Cc2ccc(OC)c(OCc3ccccc3)c2)cc1` [Compound 6, N-allyl-N-(3-benzyloxy-4-methoxybenzyl)-2-(4-allyloxyphenyl)ethan-1-amine] the IC50 ([1]; mean ± SEM of three independent measurements, each in triplicate, read-out: IC50, hBuChE ± SEM) was 70 ± 10 nM, the IC50 ([1]; read-out: IC50, hBuChE) was 72 nM and the inhibition at 100 µM ([1]; tested at 100 µM compound concentration, read-out: % Inhibition hBuChE ± SEM) was 98.6 ± 0.9%. The “Ki′” value ([2]; hBuChE, enzyme-substrate complex, nonlinear regression) was 347 ± 79 nM, the Ki ([2]; hBuChE, substrate butyrylthiocholine, nonlinear regression) was 60.3 ± 11.6 nM and the “type of hBuChE inhibition” value ([2]; sum-of-squares F-test, p < 0.05, Lineweaver–Burk plot) was “mixed type of inhibition”. For the same compound, the IC50 ([3]; mean ± SEM of three independent measurements, each in triplicate, read-out: IC50, hAChE ± SEM) was greater than 100000 nM, the inhibition at 100 µM ([3]; tested at 100 µM compound concentration, read-out: %Inhibition hAChE ± SEM) was 10.1 ± 0.6% and the IC50 [4] was greater than 10000 nM. The “residual activity of MAO-B” value ([4]; 1 and 10 µM) was “higher than 68%”.
